Source: ChEMBL document CHEMBL1697723, “A predictive ligand-based Bayesian model for human drug-induced liver injury” (Drug Metab Dispos, 2010)
Starred links: 1 amine or outer side, 2 acyl side, 3 side chain; linkers in the order of their positions; H or OH if unused. Positions of bridges follow the written chain, without caps; N, C: chain ends. Non-standard residues stand in square brackets, D forms with d. Residues, ends and D or L forms follow the SMILES beside them. Adda = CO[C@@H](Cc1ccccc1)[C@@H](C)/C=C(C)/C=C/[C@H](N[*:1])[C@H](C)C(=O)[*:2]; dAsp(3S-Me) = C[C@H](C(=O)[*:3])[C@@H](N[*:1])C(=O)[*:2]; d(γGlu) = O=C(O)[C@@H](CCC(=O)[*:2])N[*:1]; NMeDha = C=C(NC)C(=O)O

System: Hepatotoxicity
Assay: Human drug-induced liver injury (DILI) modelling dataset from Ekins et al

Row | Structure (SMILES) | Hepatotoxicity | Hepatotoxicity (Liver)
1 | Cc1ccccc1N1C(=O)c2cc(S(N)(=O)=O)c(Cl)cc2NC1C (centres undefined) [METOLAZONE] | DILI positive (test set) | –
2 | Cc1ncc([N+](=O)[O-])n1CCO [METRONIDAZOLE] | DILI positive (training set) | –
3 | CC1(C)S[C@@H]2[C@H](NC(=O)[C@H](NC(=O)N3CCN(S(C)(=O)=O)C3=O)c3ccccc3)C(=O)N2[C@H]1C(=O)[O-].[Na+] [MEZLOCILLIN SODIUM] | – | DILI positive (test set)
4 | CN1CCN2c3ccccc3Cc3ccccc3C2C1 (centres undefined) [MIANSERIN] | DILI positive (test set) | –
5 | COCC(=O)O[C@]1(CCN(C)CCCc2nc3ccccc3[nH]2)CCc2cc(F)ccc2[C@@H]1C(C)C [MIBEFRADIL] | DILI negative (test set) | –
6 | Clc1ccc(COC(Cn2ccnc2)c2ccc(Cl)cc2Cl)c(Cl)c1 (centres undefined) [MICONAZOLE] | DILI negative (training set) | –
7 | C=C1C(=O)N[C@H](C)C(=O)N[C@@H](CC(C)C)C(=O)N[C@@H](C(=O)O)[C@H](C)C(=O)N[C@@H](CCCNC(=N)N)C(=O)N[C@@H](/C=C/C(C)=C/[C@H](C)[C@H](Cc2ccccc2)OC)[C@H](C)C(=O)N[C@@H](C(=O)O)CCC(=O)N1C [MICROCYSTIN-LR] (R[Adda][d(γGlu)][NMeDha][dA]L[dAsp(3S-Me)]-OH; lactam N-7) | DILI positive (test set) | –
8 | CN(C)c1ccc(O)c2c1C[C@H]1C[C@H]3[C@H](N(C)C)C(O)=C(C(N)=O)C(=O)[C@@]3(O)C(O)=C1C2=O.Cl [MINOCYCLINE HYDROCHLORIDE] | DILI positive (test set) | –
9 | Cl.Cl.O=C1c2c(O)ccc(O)c2C(=O)c2c(NCCNCCO)ccc(NCCNCCO)c21 [MITOXANTRONE HYDROCHLORIDE] | DILI positive (training set) | –
10 | CCc1c(C)[nH]c2c1C(=O)C(CN1CCOCC1)CC2.Cl (centres undefined) [MOLINDONE HYDROCHLORIDE] | DILI positive (training set) | –
11 | C[C@@H]1C[C@H]2[C@@H]3CCC4=CC(=O)C=C[C@]4(C)[C@@]3(Cl)[C@@H](O)C[C@]2(C)[C@@]1(OC(=O)c1ccco1)C(=O)CCl [MOMETASONE FUROATE] | DILI negative (test set) | –
12 | C[C@H]1C(=O)O[C@@H]2CCN3CC=C(COC(=O)[C@](C)(O)[C@]1(C)O)[C@H]23 [MONOCROTALINE] | DILI positive (training set) | –
13 | CC(C)(O)c1ccccc1CC[C@@H](SCC1(CC(=O)O)CC1)c1cccc(/C=C/c2ccc3ccc(Cl)cc3n2)c1 [MONTELUKAST] | DILI negative (training set) | –
14 | CCOC(=O)Nc1ccc2c(c1)N(C(=O)CCN1CCOCC1)c1ccccc1S2.Cl [MORICIZINE HYDROCHLORIDE] | DILI positive (test set) | –
15 | CO[C@@]1(NC(=O)C(C(=O)[O-])c2ccc(O)cc2)C(=O)N2C(C(=O)[O-])=C(CSc3nnnn3C)CO[C@@H]21.[Na+].[Na+] (some centres undefined) [MOXALACTAM DISODIUM] | DILI negative (test set) | –
16 | CN(C)N=O [N-NITROSODIMETHYLAMINE] | DILI positive (test set) | –
17 | CC(C)(C)NCC(O)COc1cccc2c1CC(O)C(O)C2 (centres undefined) [NADOLOL] | DILI negative (training set) | –
18 | CCOc1ccc2ccccc2c1C(=O)N[C@@H]1C(=O)N2[C@@H]1SC(C)(C)[C@@H]2C(=O)[O-].O.[Na+] [NAFCILLIN SODIUM] | DILI negative (test set) | –
19 | CCn1cc(C(=O)O)c(=O)c2ccc(C)nc21 [NALIDIXIC ACID] | DILI positive (training set) | –
20 | O=C1CC[C@@]2(O)[C@H]3Cc4ccc(O)c5c4[C@@]2(CCN3CC2CC2)[C@H]1O5 [NALTREXONE] | DILI positive (training set) | –
21 | COc1ccc2cc([C@H](C)C(=O)O)ccc2c1 [NAPROXEN] | – | DILI negative (test set)
22 | CCc1nn(CCCN2CCN(c3cccc(Cl)c3)CC2)c(=O)n1CCOc1ccccc1 [NEFAZODONE] | DILI positive (test set) | –

Row | Structure (SMILES) | Hepatotoxicity | Hepatotoxicity (Liver)
23 | COC(=O)C1=C(C)NC(C)=C(C(=O)OCCN(C)Cc2ccccc2)C1c1cccc([N+](=O)[O-])c1.Cl (centres undefined) [NICARDIPINE HYDROCHLORIDE] | DILI positive (training set) | –
24 | COC(=O)C1=C(C)NC(C)=C(C(=O)OC)C1c1ccccc1[N+](=O)[O-] [NIFEDIPINE] | DILI positive (training set) | –
25 | COCCOC(=O)C1=C(C)NC(C)=C(C(=O)OC(C)C)C1c1cccc([N+](=O)[O-])c1 (centres undefined) [NIMODIPINE] | DILI positive (training set) | –
26 | COC(=O)C1=C(C)NC(C)=C(C(=O)OCC(C)C)C1c1ccccc1[N+](=O)[O-] (centres undefined) [NISOLDIPINE] | DILI negative (training set) | –
27 | O=C1CN(/N=C/c2ccc([N+](=O)[O-])o2)C(=O)N1 [NITROFURANTOIN] | – | DILI positive (test set)
28 | COC(=O)Nc1nc2ccc(C(=O)c3cccs3)cc2[nH]1 [NOCODAZOLE] | DILI negative (training set) | –
29 | CN1Cc2c(N)cccc2C(c2ccccc2)C1 (centres undefined) [NOMIFENSINE] | DILI positive (training set) | –
30 | C#CC1(O)CC[C@H]2[C@@H]3CCC4=CC(=O)CC[C@@H]4[C@H]3CC[C@@]21CC (some centres undefined) [NORGESTREL] | – | DILI positive (training set)
31 | CNCCC=C1c2ccccc2CCc2ccccc21.Cl [NORTRIPTYLINE HYDROCHLORIDE] | – | DILI positive (training set)
32 | CO[C@@H]1[C@@H](OC(N)=O)[C@@H](O)[C@H](Oc2ccc3c(O)c(NC(=O)c4ccc(O)c(CC=C(C)C)c4)c(=O)oc3c2C)OC1(C)C [NOVOBIOCIN] | DILI positive (training set) | –
33 | CCCCC(CC)COC(=O)C=Cc1ccc(OC)cc1 (centres undefined) [OCTINOXATE] | DILI positive (test set) | –
34 | CCCc1nc(C(C)(C)O)c(C(=O)O)n1Cc1ccc(-c2ccccc2-c2nnn[nH]2)cc1 [OLMESARTAN] | DILI negative (test set) | –
35 | Cc1ccccc1C(OCCN(C)C)c1ccccc1.O=C(O)CC(O)(CC(=O)O)C(=O)O (centres undefined) [ORPHENADRINE CITRATE] | DILI negative (training set) | –
36 | O=C(O)CCc1nc(-c2ccccc2)c(-c2ccccc2)o1 [OXAPROZIN] | DILI positive (test set) | –
37 | CCCOc1ccc2nc(NC(=O)OC)[nH]c2c1 [OXIBENDAZOLE] | DILI positive (training set) | –
38 | CC[N+](C)(CC)CCOC(=O)C(O)(c1ccccc1)C1CCCCC1 (centres undefined) [OXYPHENONIUM] | DILI negative (training set) | –
39 | O=S(=O)(O)O.Oc1cccc2cccnc12.Oc1cccc2cccnc12 [OXYQUINOLINE SULFATE] | – | DILI positive (test set)
40 | CC(=O)O[C@H]1C(=O)[C@@]2(C)[C@H]([C@H](OC(=O)c3ccccc3)[C@]3(O)C[C@H](OC(=O)[C@H](O)[C@@H](NC(=O)c4ccccc4)c4ccccc4)C(C)=C1C3(C)C)[C@]1(OC(C)=O)CO[C@@H]1C[C@@H]2O [PACLITAXEL] | – | DILI positive (test set)
41 | NCCC(O)(P(=O)(O)O)P(=O)(O)O [PAMIDRONIC ACID] | DILI negative (training set) | –
42 | C#CCN(C)Cc1ccccc1 [PARGYLINE] | DILI negative (test set) | –
43 | NC[C@@H]1O[C@H](O[C@H]2[C@@H](O)[C@H](O[C@@H]3[C@@H](O)[C@H](N)C[C@H](N)[C@H]3O[C@H]3O[C@H](CO)[C@@H](O)[C@H](O)[C@H]3N)O[C@@H]2CO)[C@H](N)[C@@H](O)[C@@H]1O.O=S(=O)(O)O [PAROMOMYCIN SULFATE] | DILI negative (training set) | –
44 | Fc1ccc([C@@H]2CCNC[C@H]2COc2ccc3c(c2)OCO3)cc1 [PAROXETINE] | DILI negative (training set) | –
